Starred links: 1 amine or outer side, 2 acyl side, 3 side chain; linkers in the order of their positions; H or OH if unused. Non-standard residues stand in square brackets, D forms with d. Groups on a side chain read outwards from the residue. *: point of attachment. C18 diacid = O=C(O)CCCCCCCCCCCCCCCCC(=O)*; γGlu = O=C(O)[C@H](CCC(=O)[*:2])N[*:1]; αMe4Pal = C[C@](N)(Cc1ccncc1)C(=O)O; αMeY = C[C@](N)(Cc1ccc(O)cc1)C(=O)O; 4Pal = N[C@@H](Cc1ccncc1)C(=O)O; αMeL = CC(C)C[C@](C)(N)C(=O)O; Orn = NCCC[C@H](N)C(=O)O; AEEA = NCCOCCOCC(=O)O; Aib = CC(C)(N)C(=O)O
Assays:
Assay type in all cases: cell-based
human GcgR = human GcgR (Homo sapiens, UniProt P47871); assay: Functional cAMP activity in the presence of 1% HSA; conditions: read-out: cAMP Rel EC50, hGcgR
human GcgR, sequence (P47871 26-477): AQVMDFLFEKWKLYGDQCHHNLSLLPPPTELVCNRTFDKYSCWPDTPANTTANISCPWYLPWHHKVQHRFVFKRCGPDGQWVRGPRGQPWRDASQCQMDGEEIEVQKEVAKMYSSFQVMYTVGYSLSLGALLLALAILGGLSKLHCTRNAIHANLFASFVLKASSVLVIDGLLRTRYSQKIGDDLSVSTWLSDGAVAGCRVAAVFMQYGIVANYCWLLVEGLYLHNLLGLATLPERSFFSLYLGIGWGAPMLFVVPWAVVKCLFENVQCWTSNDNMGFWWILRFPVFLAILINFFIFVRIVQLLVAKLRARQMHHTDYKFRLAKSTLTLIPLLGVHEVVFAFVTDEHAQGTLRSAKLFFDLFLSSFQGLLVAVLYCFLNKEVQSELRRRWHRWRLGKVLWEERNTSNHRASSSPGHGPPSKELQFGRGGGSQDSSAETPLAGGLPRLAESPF

hGcgR = hGcgR (Homo sapiens, UniProt P47871); assay: Functional cAMP activation in the presence of 0.1% casein (no HSA); conditions: in the presence of 0.1% casein (no HSA); geometric mean; read-out: Relative cAMP EC50, hGcgR;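 further: intracellular cAMP rise after 30 min at 37 °C, read by HTRF against a cAMP standard curve, scaled from buffer only (0%) to maximal control ligand response (100%)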
hGcgR, sequence (P47871 26-477): as above

hGLP-1R [1] = target: T1, hGLP-1R (Homo sapiens, UniProt P43220); assay: as above; conditions: in the presence of 0.1% casein (no HSA); geometric mean; read-out: Relative cAMP EC50, hGLP-1R;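 further: intracellular cAMP rise after 30 min at 37 °C read by HTRF, normalized between buffer only (0%) and maximal control ligand (100%), four-parameter variable-slope fit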
T1 sequence (P43220 24-463): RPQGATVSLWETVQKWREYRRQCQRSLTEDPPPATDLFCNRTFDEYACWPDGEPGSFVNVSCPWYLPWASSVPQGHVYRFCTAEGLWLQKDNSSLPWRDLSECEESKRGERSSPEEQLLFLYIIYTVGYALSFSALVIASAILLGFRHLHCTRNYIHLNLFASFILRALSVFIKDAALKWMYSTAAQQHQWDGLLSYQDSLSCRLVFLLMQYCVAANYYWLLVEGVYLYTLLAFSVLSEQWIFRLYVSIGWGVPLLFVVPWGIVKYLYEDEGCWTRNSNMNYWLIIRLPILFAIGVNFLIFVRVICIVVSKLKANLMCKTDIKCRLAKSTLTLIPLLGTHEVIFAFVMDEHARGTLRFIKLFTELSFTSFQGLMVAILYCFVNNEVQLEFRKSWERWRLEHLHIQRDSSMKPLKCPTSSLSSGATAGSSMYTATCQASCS

hGIPR [2] = target: T2, hGIPR (Homo sapiens, UniProt P48546); assay: Functional cAMP activity in the presence of 1% HSA; conditions: read-out: cAMP Rel EC50, hGIPR
T2 sequence (P48546 22-466): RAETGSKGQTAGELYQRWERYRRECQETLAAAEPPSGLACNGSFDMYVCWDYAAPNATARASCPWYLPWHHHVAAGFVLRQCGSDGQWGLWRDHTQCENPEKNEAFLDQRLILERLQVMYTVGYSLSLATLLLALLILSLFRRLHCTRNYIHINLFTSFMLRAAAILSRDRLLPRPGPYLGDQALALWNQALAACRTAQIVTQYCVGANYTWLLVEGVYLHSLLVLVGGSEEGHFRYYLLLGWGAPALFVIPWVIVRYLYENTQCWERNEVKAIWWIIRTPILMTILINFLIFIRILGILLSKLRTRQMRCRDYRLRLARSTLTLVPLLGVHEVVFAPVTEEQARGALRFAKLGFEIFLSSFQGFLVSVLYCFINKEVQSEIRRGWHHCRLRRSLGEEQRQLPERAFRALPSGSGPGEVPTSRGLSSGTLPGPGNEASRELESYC

hGLP-1R [3] = target: T1, hGLP-1R; assay: Functional cAMP activity in the presence of 1% HSA; conditions: read-out: cAMP Rel EC50, hGLP-1R
hGIPR [4] = target: T2, hGIPR; assay: Functional cAMP activation in the presence of 0.1% casein (no HSA); conditions: in the presence of 0.1% casein (no HSA); geometric mean; read-out: Relative cAMP EC50, hGIPR;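 on Relative cAMP EC50, hGIPR: intracellular cAMP rise after 30 min at 37 °C read by HTRF against a standard curve, scaled between buffer alone (0%) and top control ligand concentration (100%), four-parameter fit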;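 on Relative cAMP EC50, hGLP-1R: intracellular cAMP rise after 30 min at 37 °C read by HTRF, normalized between buffer only (0%) and maximal control ligand (100%), four-parameter variable-slope fit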

Substance | EC50 (human GcgR) | EC50 (hGcgR) | EC50 (hGLP-1R [1]) | EC50 (hGIPR [2]) | EC50 (hGLP-1R [3]) | EC50 (hGIPR [4])
H-Y[Aib]QGTFTSD[4Pal]S[Orn][αMeL]LDKK([AEEA-AEEA-γGlu-C18 diacid])AQ[αMe4Pal]AFIEYLIE[Aib]GPSSGAPPPSGS-NH2 [Example 814] | 554 nM | 3.92 nM | 3.76 nM | 27.8 nM | 649 nM | 0.337 nM
H-Y[Aib]QGTFTSD[4Pal]S[Orn][αMeL]LDKK([AEEA-γGlu-C18 diacid])AQ[Aib]AFIEYLLE[dA]GPSSGAPPPSG[4Pal]-NH2 [Example 274] | 1120 nM | 9.37 nM | 4.9 nM | 27.6 nM | 560 nM | 0.296 nM
H-Y[Aib]QGTFTSD[4Pal]S[Orn][αMeL]LDKK([AEEA-γGlu-C18 diacid])AQ[Aib]AFIEYLLE[dA]GPSS[Aib]APPPSGT-NH2 [Example 275] | 882 nM | 7.8 nM | 4.93 nM | 27.7 nM | 692 nM | 0.318 nM
H-Y[Aib]QGTFTSD[4Pal]S[Orn][αMeL]LDKK([AEEA-γGlu-C18 diacid])AQ[Aib]AFIE[αMeY]LIEGGPSSGAPPPSGS-NH2 [Example 836] | 2100 nM | 17.1 nM | 0.794 nM | 26.7 nM | 103 nM | 0.294 nM
H-Y[Aib]QGTFTSD[4Pal]S[Orn][αMeL]LDKK([AEEA-γGlu-C18 diacid])AQ[αMe4Pal]AFIE[αMe4Pal]LIEGGPSSGAPPPSGS-NH2 [Example 949] | 317 nM | 1.62 nM | 3.37 nM | 26 nM | 721 nM | 0.203 nM
H-Y[Aib]QGTFTSD[4Pal]S[Orn][αMeL]LDKK([AEEA-γGlu-C18 diacid])AQ[αMe4Pal]AFIE[αMe4Pal]LIEGGPSSGAPPPSGSEE-NH2 [Example 955] | 366 nM | 2.65 nM | 7.74 nM | 42.3 nM | 1380 nM | 0.386 nM
H-Y[Aib]QGTFTSD[4Pal]S[Orn][αMeL]LDKK([AEEA-γGlu-γGlu-C18 diacid])AQ[αMe4Pal]AFIEYLIE[Aib]GPSSGAPPPSGS-NH2 [Example 867] | 242 nM | 2.47 nM | 7.38 nM | 16.2 nM | 474 nM | 0.216 nM
H-Y[Aib]QGTFTSD[4Pal]S[Orn][αMeL]LDKK([AEEA-γGlu-γGlu-C18 diacid])AQ[αMe4Pal]AFIE[αMe4Pal]LIE[Aib]GPSSGEPPPSGS-NH2 [Example 987] | 267 nM | 3.62 nM | 6.33 nM | 11.7 nM | 515 nM | 0.194 nM
H-Y[Aib]QGTFTSD[4Pal]S[Orn][αMeL]LDKK([AEEA-γGlu-γGlu-C18 diacid])AQ[αMe4Pal]AFIE[αMe4Pal]LIE[Aib]GPSSGEPPPSGSE-NH2 [Example 988] | 320 nM | 2.52 nM | 9.5 nM | 11.8 nM | 743 nM | 0.198 nM
H-Y[Aib]QGTFTSD[4Pal]S[Orn][αMeL]LDKK([γGlu-AEEA-γGlu-C18 diacid])AQ[αMe4Pal]AFIEYLIE[Aib]GPSSGAPPPSGS-NH2 [Example 868] | 622 nM | 7.4 nM | 5.82 nM | 17.7 nM | 822 nM | 0.208 nM
H-Y[Aib]QGTFTSD[4Pal]S[Orn][αMeL]LDKK([γGlu-γGlu-C18 diacid])AQ[Aib]AFIE[αMeY]LIEGGPSSGAPPPSGS-NH2 [Example 941] | 1430 nM | 11.7 nM | 0.764 nM | 22.1 nM | 113 nM | 0.183 nM
H-Y[Aib]QGTFTSD[4Pal]S[Orn][αMeL]LDKK([γGlu-γGlu-C18 diacid])AQ[Aib]AFIE[αMeY]LLEGGPSSGAPPPSGS-NH2 [Example 942] | 1560 nM | 6.32 nM | 3.52 nM | 28.3 nM | 490 nM | 0.188 nM
H-Y[Aib]QGTFTSD[4Pal]S[Orn][αMeL]LDKK([γGlu-γGlu-C18 diacid])AQ[αMe4Pal]AFIEYLIAGGESSGAPPPSGSEE-NH2 [Example 964] | 324 nM | 2.75 nM | 2.67 nM | 21.4 nM | 267 nM | 0.288 nM
H-Y[Aib]QGTFTSD[4Pal]S[Orn][αMeL]LDKK([γGlu-γGlu-C18 diacid])AQ[αMe4Pal]AFIEYLIAGGPSSGAPPPSGSE-NH2 [Example 1009] | 268 nM | 4.21 nM | 2.1 nM | 9.72 nM | 174 nM | 0.13 nM
H-Y[Aib]QGTFTSD[4Pal]S[Orn][αMeL]LDKK([γGlu-γGlu-C18 diacid])AQ[αMe4Pal]AFIEYLIAGGPSSGEPPPSGE-NH2 [Example 979] | 359 nM | 3.34 nM | 2.72 nM | 19.2 nM | 257 nM | 0.181 nM
H-Y[Aib]QGTFTSD[4Pal]S[Orn][αMeL]LDKK([γGlu-γGlu-C18 diacid])AQ[αMe4Pal]AFIEYLIAGGPSSGEPPPSGTE-NH2 [Example 980] | 239 nM | 2.41 nM | 2.26 nM | 15.4 nM | 290 nM | 0.18 nM
H-Y[Aib]QGTFTSD[4Pal]S[Orn][αMeL]LDKK([γGlu-γGlu-C18 diacid])AQ[αMe4Pal]AFIEYLIAGGPSSGEPPPSGTEE-NH2 [Example 981] | 477 nM | 3.7 nM | 4.45 nM | 21.1 nM | 330 nM | 0.243 nM
H-Y[Aib]QGTFTSD[4Pal]S[Orn][αMeL]LDKK([γGlu-γGlu-C18 diacid])AQ[αMe4Pal]AFIEYLIAGGPSSGEPPPSGTEEE-NH2 [Example 982] | 307 nM | 3.91 nM | 4.94 nM | 19.4 nM | 310 nM | 0.328 nM
H-Y[Aib]QGTFTSD[4Pal]S[Orn][αMeL]LDKK([γGlu-γGlu-C18 diacid])AQ[αMe4Pal]AFIEYLIE[Aib]GPSSGAPPPSGS-NH2 [Example 865] | 248 nM | 1.48 nM | 3.02 nM | 10.8 nM | 351 nM | 0.0797 nM
H-Y[Aib]QGTFTSD[4Pal]S[Orn][αMeL]LDKK([γGlu-γGlu-C18 diacid])AQ[αMe4Pal]AFIE[αMe4Pal]LIEGGPSSGAPPPSGS-NH2 [Example 952] | 266 nM | 2.4 nM | 4.85 nM | 16.6 nM | 439 nM | 0.166 nM
H-Y[Aib]QGTFTSD[4Pal]S[Orn][αMeL]LDKK([γGlu-γGlu-C18 diacid])AQ[αMe4Pal]AFIE[αMe4Pal]LIEGGPSSGAPPPSGSEE-NH2 [Example 958] | 340 nM | 3.17 nM | 9.51 nM | 27.1 nM | 850 nM | 0.343 nM
H-Y[Aib]QGTFTSD[4Pal]S[Orn][αMeL]LDKK([γGlu-γGlu-C18 diacid])AQ[αMe4Pal]AFIE[αMe4Pal]LIE[Aib]GPSSGEPPPSGSE-NH2 [Example 990] | 276 nM | 2.47 nM | 5.78 nM | 9.87 nM | 557 nM | 0.115 nM
H-Y[Aib]QGTFTSD[4Pal]S[Orn][αMeL]LDKK([γGlu-γGlu-C18 diacid])AQ[αMe4Pal]AFIE[αMeY]LIAGGPSSGAPPPEGS-NH2 [Example 1015] | 357 nM | 3.53 nM | 1.01 nM | 9.08 nM | 92.4 nM | 0.0822 nM
H-Y[Aib]QGTFTSD[4Pal]S[Orn][αMeL]LDKK([γGlu-γGlu-C18 diacid])AQ[αMe4Pal]AFIE[αMeY]LIAGGPSSGEPPPSGS-NH2 [Example 1014] | 277 nM | 3.62 nM | 0.718 nM | 5.62 nM | 86.4 nM | 0.0412 nM
H-Y[Aib]QGTFTSD[4Pal]S[Orn][αMeL]LDKK([γGlu-γGlu-C18 diacid])AQ[αMe4Pal]AFIE[αMeY]LIEGGPSSGAPPPSGSEE-NH2 [Example 967] | 508 nM | 1.94 nM | 1.75 nM | 39.5 nM | 345 nM | 0.205 nM
H-Y[Aib]QGTFTSD[4Pal]S[Orn][αMeL]LDKK([γGlu-γGlu-γGlu-C18 diacid])AQ[αMe4Pal]AFIEYLIE[Aib]GPSSGAPPPSGS-NH2 [Example 866] | 669 nM | 4.48 nM | 4.01 nM | 23.8 nM | 483 nM | 0.148 nM
H-Y[Aib]QGTFTSD[4Pal]S[Orn][αMeL]LD[Orn]K([Glu-Glu-γGlu-C18 diacid])AQ[Aib]AFIE[αMeY]LLEGGPSSGAPPPSGSEE-NH2 [Example 1067] | 1860 nM | 12.6 nM | 17.6 nM | 86.4 nM | 2610 nM | 0.471 nM
